Data from patent US8952024B2, “Herbicidal pyrimidone derivatives” (E I du Pont de Nemours and Company, priority 2009, dated 2015).

How the values were obtained:
Type in all cases: in vivo
wild oat (Avena fatua) = assay: Test B pre-/postemergence plant response; details: for Plant response rating, Oat, Wild: Postemergence
Outline: (§1)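 Plants treated either at seeding (loam/sand soil) or postemergence at 2 to 18 cm height, using a surfactant-containing non-phytotoxic solvent formulation. Evaluation was visual after 13 to 15 days, 0 to 100 scale relative to controls.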

[1] = system: pigweed (Amaranthus retroflexus); assay: Test B pre-/postemergence plant response; details: for Plant response rating, Pigweed: Postemergence
Outline: as §1

corn (Zea mays) = assay: Test B pre-/postemergence plant response; details: for Plant response rating, Corn: Postemergence
Outline: as §1

soybean (Glycine max) = assay: Test B pre-/postemergence plant response; details: for Plant response rating, Soybean: Postemergence
Outline: as §1

[2] = system: giant foxtail (Setaria faberii); assay: Test B pre-/postemergence plant response; details: for Plant response rating, Foxtail, Giant: Postemergence
Outline: as §1

[3] = system: lambsquarters (Chenopodium album); assay: Test B pre-/postemergence plant response; details: for Plant response rating, Lambsquarters: Postemergence
Outline: as §1

[4] = system: bermudagrass (Cynodon dactylon); assay: Test B pre-/postemergence plant response; details: for Plant response rating, Bermudagrass: Postemergence
Outline: as §1

[5] = system: ragweed (common ragweed, Ambrosia elatior); assay: Test B pre-/postemergence plant response; details: for Plant response rating, Ragweed: Postemergence
Outline: as §1

[6] = system: green foxtail (Setaria viridis); assay: Test B pre-/postemergence plant response; details: for Plant response rating, Foxtail, Green: Postemergence
Outline: as §1

[7] = system: cocklebur (Xanthium strumarium); assay: Test B pre-/postemergence plant response; details: for Plant response rating, Cocklebur: Postemergence
Outline: as §1

[8] = system: johnsongrass (Sorghum halepense); assay: Test B pre-/postemergence plant response; details: for Plant response rating, Johnsongrass: Postemergence
Outline: as §1

kochia (Kochia scoparia) = assay: Test B pre-/postemergence plant response; details: for Plant response rating, Kochia: Postemergence
Outline: as §1

[9] = system: ducksalad (Heteranthera limosa); assay: Test B flooded paddy test; details: for Plant response rating, Ducksalad: Flood (flooded paddy test), 13 to 15 days
Outline: (§2)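 Plants were grown to the 2-leaf stage, then pots were flooded to 3 cm above the soil and compounds were applied directly into the paddy water. That depth was held throughout. After 13 to 15 days in a greenhouse, injury was visually rated against controls on a 0–100 scale.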

[10] = system: barnyardgrass (Echinochloa crus-galli); assay: Test B flooded paddy test; details: for Plant response rating, Barnyardgrass: Flood (flooded paddy test), 13 to 15 days
Outline: as §2

[11] = system: umbrella sedge (Cyperus difformis); assay: Test B flooded paddy test; details: for Plant response rating, Sedge, Umbrella: Flood (flooded paddy test), 13 to 15 days
Outline: as §2

rice (Oryza sativa) = assay: Test B flooded paddy test; details: for Plant response rating, Rice: Flood (flooded paddy test), 13 to 15 days
Outline: as §2

[12] = 62 g ai/ha, postemergence, 0 is no effect, 100 is complete control, 13 to 15 days
[13] = 31 g ai/ha, 0 to 100 scale (0 no effect, 100 complete control)
[14] = 125 g ai/ha, scale 0 to 100 (0 no effect, 100 complete control)
[15] = 250 g ai/ha, scale 0 to 100 (0 no effect, 100 complete control), 13 to 15 days
[16] = 250 g ai/ha, flooded paddy test, visual rating on 0 to 100 scale (0 no effect, 100 complete control) after 13 to 15 days
[17] = 62 g ai/ha, scale of 0 to 100 where 0 is no effect and 100 is complete control
[18] = 125 g ai/ha, scale 0 to 100, 0 is no effect, 100 is complete control
[19] = Flood, 31 g ai/ha, scale 0 to 100 (0 no effect, 100 complete control)

In the case of `CCCn1c(-c2cccc(F)c2)ncc(C(=O)C2=C(O)CCCC2=O)c1=O` [Compound 127], the “Oat, Wild plant response rating (0 to 100 scale)” value (wild oat (Avena fatua); [12]) is reported as 10, the “Plant response rating, Oat, Wild” value (wild oat (Avena fatua); [13]) is reported as 5 and the “Plant response rating, Oat, Wild” value (wild oat (Avena fatua); [14]) is reported as 25. The “Plant response rating, Oat, Wild” value (wild oat (Avena fatua); [15]) was 60, the “Pigweed plant response rating (0 to 100 scale)” value [1, 12] was 95 and the “Plant response rating, Pigweed” value [1, 13] was 80. For the same molecule, the “Plant response rating, Pigweed” value [1, 14] was 95, the “Plant response rating, Pigweed” value [1, 15] was 100 and the “Corn plant response rating (0 to 100 scale)” value (corn (Zea mays); [12]) was 25. For the same molecule, the “Plant response rating, Corn” value (corn (Zea mays); [13]) was 5, the “Plant response rating, Corn” value (corn (Zea mays); [14]) was 25 and the “Plant response rating, Corn” value (corn (Zea mays); [15]) was 75. For the same molecule, the “Soybean plant response rating (0 to 100 scale)” value (soybean (Glycine max); [12]) was 98, the “Plant response rating, Soybean” value (soybean (Glycine max); [13]) was 95 and the “Plant response rating, Soybean” value (soybean (Glycine max); [14]) was 98. For the same molecule, the “Plant response rating, Soybean” value (soybean (Glycine max); [15]) was 98, the “Foxtail, Giant plant response rating (0 to 100 scale)” value [2, 12] was 85 and the “Plant response rating, Foxtail, Giant” value [2, 13] was 80. The “Plant response rating, Foxtail, Giant” value [2, 14] was 85, the “Plant response rating, Foxtail, Giant” value [2, 15] was 90 and the “Lambsquarters plant response rating (0 to 100 scale)” value [3, 12] was 85. For the same molecule, the “Plant response rating, Lambsquarters” value [3, 13] was 75, the “Plant response rating, Lambsquarters” value [3, 14] was 90 and the “Plant response rating, Lambsquarters” value [3, 15] was 95. The “Bermudagrass plant response rating (0 to 100 scale)” value [4, 12] was 95, the “Plant response rating, Bermudagrass” value [4, 13] was 95 and the “Plant response rating, Bermudagrass” value [4, 14] was 98. For the same molecule, the “Plant response rating, Bermudagrass” value [4, 15] was 98, the “Ragweed plant response rating (0 to 100 scale)” value [5, 12] was 85 and the “Plant response rating, Ragweed” value [5, 13] was 70. The “Plant response rating, Ragweed” value [5, 14] was 98, the “Plant response rating, Ragweed” value [5, 15] was 98 and the “Foxtail, Green plant response rating (0 to 100 scale)” value [6, 12] was 85. For the same molecule, the “Plant response rating, Foxtail, Green” value [6, 13] was 75, the “Plant response rating, Foxtail, Green” value [6, 14] was 90 and the “Plant response rating, Foxtail, Green” value [6, 15] was 95. For the same molecule, the “Cocklebur plant response rating (0 to 100 scale)” value [7, 12] was 95, the “Plant response rating, Cocklebur” value [7, 13] was 75 and the “Plant response rating, Cocklebur” value [7, 14] was 95. For the same molecule, the “Plant response rating, Cocklebur” value [7, 15] was 100, the “Johnsongrass plant response rating (0 to 100 scale)” value [8, 12] was 70 and the “Plant response rating, Johnsongrass” value [8, 13] was 65. The “Plant response rating, Johnsongrass” value [8, 14] was 80, the “Plant response rating, Johnsongrass” value [8, 15] was 95 and the “Kochia plant response rating (0 to 100 scale)” value (kochia (Kochia scoparia); [12]) was 98. The “Plant response rating, Kochia” value (kochia (Kochia scoparia); [13]) was 45, the “Plant response rating, Kochia” value (kochia (Kochia scoparia); [14]) was 100 and the “Plant response rating, Kochia” value (kochia (Kochia scoparia); [15]) was 100. The “Plant response rating, Flood, Ducksalad” value [9, 16] was 80, the “Plant response rating, Ducksalad” value [9, 17] was 30 and the “Plant response rating, Ducksalad” value [9, 18] was 60. The “Ducksalad plant response rating” value [9, 19] was 0, the “Plant response rating, Flood, Barnyardgrass” value [10, 16] was 75 and the “Plant response rating, Barnyardgrass” value [10, 17] was 40. The “Plant response rating, Barnyardgrass” value [10, 18] was 65, the “Barnyardgrass plant response rating” value [10, 19] was 0 and the “Plant response rating, Flood, Sedge, Umbrella” value [11, 16] was 80. For the same molecule, the “Plant response rating, Sedge, Umbrella” value [11, 17] was 20, the “Plant response rating, Sedge, Umbrella” value [11, 18] was 60 and the “Sedge, Umbrella plant response rating” value [11, 19] was 0. For the same molecule, the “Plant response rating, Flood, Rice” value (rice (Oryza sativa); [16]) was 35, the “Plant response rating, Rice” value (rice (Oryza sativa); [17]) was 15 and the “Plant response rating, Rice” value (rice (Oryza sativa); [18]) was 25. The “Rice plant response rating” value (rice (Oryza sativa); [19]) was 0.
